# Laboratory results taken from the COVID Moonshot data (paper PMC11187573), “Identification of SARS-CoV-2 Mpro inhibitors through deep reinforcement learning for de novo drug design and computational chemistry approaches” (RSC Medicinal Chemistry, 2024).
# Legend:
# [1] = target: SARS-CoV-2 Main Protease (SARS-CoV-2) (UniProt P0DTD1)
# Method: Briefly, compounds were seeded into assay-ready plates (Greiner 384PP, cat# 781280) using an ECHO 650T dispenser and DMSO was back-filled for a uniform concentration in assay plates (DMSO concentration < 1%, final volume = 500 nL.). […] After a quick centrifugation step (1000 rpm, 15 s) the plate is incubated for 15 min at room temperature. […] After centrifugation (1000 rpm, 14 s) the reaction is incubated for 10 min (11-mer) or 5 min (37-mer) at room temperature before quenching with 10 % formic acid. The reactions are analysed with MS using RapidFire (RF) 365 high-throughput sampling robot (Agilent) connected to an iFunnel Agilent 6550 accurate mass quadrupole time-of-flight (Q-TOF) mass spectrometer using electrospray. […] Dose response curves uses an 11-point range of 100--0.0017 µM inhibitor concentrations. RapidFire integrator software (Agilent) was used to extract the charged states from the total ion chromatogram data followed by peak integration. For the 11-mer peptide the m/z (+1) charge states of both the substrate (1191.67 Da) and cleaved N-terminal product TSAVLQ (617.34 Da) were used and the 37-mer peptide the m/z (+2) charge states of the substrate (3960.94 Da) and m/z (+1) of the cleaved C-terminal product [sequence] (1125.57 Da). Percentage conversion (product peak integral / (product peak integral + substrate peak integral))*100) and percentage inhibitions were calculated and normalised against DMSO control with deduction of any background signal in Microsoft Excel. IC50s were calculated using Levenberg–Marquardt algorithm used to fit a restrained Hill equation to the dose-response data with both GraphPad PRISM and CDD.
# [2] = target: SARS-CoV-2 Main Protease (SARS-CoV-2) (UniProt P0DTD1); remark: listed apart in the source
compound,measurement,setting,value
CN(C)C(=O)C[C@@H]1CN(C(=O)c2cnn3c2CCC3)c2ccc(Cl)cc21 (stereo in doubt),inhibition,[1]; 20.0 µM,0%
same,inhibition,[2]; 20.0 µM,-17.5%
same,inhibition,[2]; 50.0 µM,-10.8%
same,relative solubility at 20 uM,,1
same,relative solubility at 100 uM,,1
Cc1ccc(NC2CCN(c3ccc(S(N)(=O)=O)cc3)CC2)cc1,inhibition,[1]; 20.0 µM,28.4%
same,inhibition,[1]; 50.0 µM,40%
same,inhibition,[2]; 20.0 µM,2.67%
same,inhibition,[2]; 50.0 µM,5.62%
same,relative solubility at 20 uM,,0.92
same,relative solubility at 100 uM,,0.84
O=S(=O)(NC1(Cc2ccccc2)CCOCC1)c1cccnc1,inhibition,[1]; 50.0 µM,11.6%
same,inhibition,[2]; 20.0 µM,-34.8%
same,inhibition,[2]; 50.0 µM,3.06%
same,relative solubility at 20 uM,,1
same,relative solubility at 100 uM,,1
Cc1csc(C(=O)N/N=C/c2cccnc2)c1N,inhibition,[1]; 50.0 µM,-6.32%
same,inhibition,[2]; 20.0 µM,-0.86%
same,inhibition,[2]; 50.0 µM,-19.8%
same,relative solubility at 20 uM,,0.99
same,relative solubility at 100 uM,,0.93
N#Cc1ncccc1NC(=O)Cc1cccc(Cl)c1,inhibition,[1]; 20.0 µM,0%
same,inhibition,[1]; 50.0 µM,0%
same,inhibition,[2]; 20.0 µM,-10.2%
same,inhibition,[2]; 50.0 µM,-15.7%
same,relative solubility at 20 uM,,0.99
same,relative solubility at 100 uM,,1
CCC(=O)Nc1cccc(OC2CC(=O)N2)c1 (configuration not stated),inhibition,[1]; 50.0 µM,0%
same,inhibition,[2]; 20.0 µM,-4.99%
same,inhibition,[2]; 50.0 µM,-6.23%
same,relative solubility at 20 uM,,1.01
same,relative solubility at 100 uM,,1.01
CS(=O)(=O)NCCc1ccccc1O,inhibition,[1]; 20.0 µM,0%
same,inhibition,[1]; 50.0 µM,0%
same,inhibition,[2]; 50.0 µM,14.4%
same,relative solubility at 20 uM,,1
same,relative solubility at 100 uM,,1
N#CC(C(=O)Nc1ccccc1)C(=O)c1cccc(Cl)c1 (configuration not stated),inhibition,[1]; 20.0 µM,0%
same,inhibition,[1]; 50.0 µM,0%
same,inhibition,[2]; 20.0 µM,24.1%
same,inhibition,[2]; 50.0 µM,44%
same,relative solubility at 20 uM,,0.98
same,relative solubility at 100 uM,,0.98
N#Cc1cnn(-c2ccccc2NC(=O)Cc2ccn[nH]2)c1N,inhibition,[1]; 20.0 µM,0%
same,inhibition,[2]; 20.0 µM,-9.14%
same,inhibition,[2]; 50.0 µM,2.96%
same,relative solubility at 20 uM,,1
same,relative solubility at 100 uM,,0.96
Cc1noc(C)c1CS(=O)(=O)Cc1cccc(Cl)c1,inhibition,[1]; 50.0 µM,0%
same,inhibition,[2]; 20.0 µM,1.07%
same,inhibition,[2]; 50.0 µM,-0.0149%
same,relative solubility at 20 uM,,0.99
same,relative solubility at 100 uM,,1
Cc1ccc(-c2cc(C(F)(F)F)nn2-c2ccc(S(N)(=O)=O)cc2)cc1,inhibition,[1]; 20.0 µM,2.17%
same,inhibition,[2]; 20.0 µM,6.23%
same,inhibition,[2]; 50.0 µM,11.9%
same,relative solubility at 20 uM,,0.91
same,relative solubility at 100 uM,,0.79
O=C(NC1CCCCC1NC(=O)c1ccncc1)c1ccccc1 (configuration not stated),inhibition,[1]; 20.0 µM,0%
same,inhibition,[1]; 50.0 µM,0%
same,inhibition,[2]; 50.0 µM,-22.4%
same,relative solubility at 20 uM,,1
same,relative solubility at 100 uM,,1
COc1cccc(N2CCN(C(=O)c3cc(=O)[nH]c4ccccc34)CC2)c1,IC50,[1],19.7 µM
same,inhibition,[1]; 50.0 µM,83.3%
same,inhibition,[2]; 20.0 µM,78.5%
same,inhibition,[2]; 50.0 µM,90.8%
same,relative solubility at 20 uM,,0.99
same,relative solubility at 100 uM,,0.95
NS(=O)(=O)c1ccc(C(=O)N2Cc3ccccc3C(c3ccccc3)C2)cc1 (configuration not stated),inhibition,[1]; 20.0 µM,0%
same,inhibition,[2]; 20.0 µM,0.809%
same,inhibition,[2]; 50.0 µM,8.23%
same,relative solubility at 20 uM,,0.95
same,relative solubility at 100 uM,,0.96
O=C(Cc1cccc(Cl)c1)Nn1cnnc1,inhibition,[1]; 50.0 µM,0%
same,inhibition,[2]; 20.0 µM,-9.88%
same,inhibition,[2]; 50.0 µM,-21.6%
same,relative solubility at 20 uM,,1
same,relative solubility at 100 uM,,1
CCN1CCN(Cc2ccccc2CNC2=NC[C@@H](C3CCCC3)N2)CC1 (stereo in doubt),inhibition,[1]; 50.0 µM,-30.8%
same,inhibition,[2]; 20.0 µM,-1.16%
same,inhibition,[2]; 50.0 µM,-20.8%
same,relative solubility at 20 uM,,1
same,relative solubility at 100 uM,,1
NS(=O)(=O)c1ccc(N2CCC(Nc3ccc(F)cc3)CC2)cc1,IC50,[1],39.2 µM
same,inhibition,[1]; 20.0 µM,3.79%
same,inhibition,[1]; 50.0 µM,50.2%
same,inhibition,[2]; 50.0 µM,8.08%
same,relative solubility at 20 uM,,1
same,relative solubility at 100 uM,,0.89
C=CC(=O)N(c1ccc(C(F)(F)F)cc1)C(C(=O)NCCc1cccc(F)c1)c1cncc(C)c1 (configuration not stated),IC50,[1],7.72 µM
same,inhibition,[1]; 50.0 µM,91.6%
same,inhibition,[2]; 20.0 µM,38.8%
same,inhibition,[2]; 50.0 µM,63%
same,relative solubility at 20 uM,,0.91
same,relative solubility at 100 uM,,0.73
O=C(Nc1cccc(-c2cc[nH]n2)c1)C(O)c1cccnc1 (configuration not stated),inhibition,[1]; 20.0 µM,0%
same,inhibition,[1]; 50.0 µM,0%
same,inhibition,[2]; 50.0 µM,10.4%
same,relative solubility at 20 uM,,1
same,relative solubility at 100 uM,,1
O=C(C1CCN(c2ccncc2)CC1)N1CCCCC1,inhibition,[1]; 20.0 µM,0%
same,inhibition,[1]; 50.0 µM,-0.3%
same,inhibition,[2]; 50.0 µM,-18.6%
same,relative solubility at 20 uM,,0.99
same,relative solubility at 100 uM,,1
CN(CCNC(=O)c1cc(=O)[nH]c2ccccc12)c1ccccc1,inhibition,[1]; 50.0 µM,8.3%
same,inhibition,[2]; 20.0 µM,-2.32%
same,inhibition,[2]; 50.0 µM,19.2%
same,relative solubility at 20 uM,,0.91
same,relative solubility at 100 uM,,0.77
O=C(NCCOc1ccccc1)c1cc(=O)[nH]c2ccccc12,inhibition,[1]; 50.0 µM,3.05%
same,inhibition,[2]; 20.0 µM,12.7%
same,inhibition,[2]; 50.0 µM,54.6%
same,relative solubility at 20 uM,,1
same,relative solubility at 100 uM,,1
Cc1cccc(CS(=O)(=O)N2CCC(C(N)=O)CC2)c1,inhibition,[1]; 50.0 µM,0%
same,inhibition,[2]; 20.0 µM,-20.4%
same,inhibition,[2]; 50.0 µM,0.138%
same,relative solubility at 20 uM,,1.01
same,relative solubility at 100 uM,,1.01
Cc1ccc(NC(=O)C(C#N)C(=O)CC(C)C)cc1 (configuration not stated),inhibition,[1]; 20.0 µM,3.11%
same,inhibition,[1]; 50.0 µM,0%
same,inhibition,[2]; 50.0 µM,21.5%
same,relative solubility at 20 uM,,0.99
same,relative solubility at 100 uM,,1
C=CC(=O)N(c1ccc(N2CCC2)cc1)C(C(=O)NC(C)(C)C)c1cccnc1 (configuration not stated),inhibition,[1]; 20.0 µM,0%
same,inhibition,[2]; 20.0 µM,-18.5%
same,inhibition,[2]; 50.0 µM,-17.3%
same,relative solubility at 20 uM,,0.97
same,relative solubility at 100 uM,,0.93
COc1cccc(NC(=O)Nc2cccc(C#N)c2)c1,inhibition,[1]; 20.0 µM,0%
same,inhibition,[1]; 50.0 µM,2.48%
same,inhibition,[2]; 20.0 µM,5.11%
same,inhibition,[2]; 50.0 µM,9.79%
same,relative solubility at 20 uM,,0.96
same,relative solubility at 100 uM,,0.94
C=CC(=O)Nc1cc(C(=O)NC[C@H](Cc2ccccc2)c2ccccn2)ccc1O (stereo in doubt),inhibition,[1]; 20.0 µM,0%
same,inhibition,[2]; 20.0 µM,0.684%
same,inhibition,[2]; 50.0 µM,9.48%
same,relative solubility at 20 uM,,0.83
same,relative solubility at 100 uM,,0.82
Cc1ccncc1NC(=O)CCc1ccn[nH]1,inhibition,[1]; 50.0 µM,-1.76%
same,inhibition,[2]; 20.0 µM,18.9%
same,inhibition,[2]; 50.0 µM,-26.3%
same,relative solubility at 20 uM,,1
same,relative solubility at 100 uM,,1
C=CC(=O)N(c1ccc(C(C)(C)C)cc1)C(C(=O)NC(C)(C)C)c1cnc[nH]1 (configuration not stated),inhibition,[1]; 20.0 µM,0%
same,inhibition,[1]; 50.0 µM,0%
same,inhibition,[2]; 20.0 µM,-20.2%
same,inhibition,[2]; 50.0 µM,-23.6%
same,relative solubility at 20 uM,,0.99
same,relative solubility at 100 uM,,0.89
CC(=O)N1CCN(CC(=O)Nc2cccc(S(N)(=O)=O)c2)CC1,inhibition,[1]; 20.0 µM,0%
same,inhibition,[2]; 20.0 µM,-3.12%
same,inhibition,[2]; 50.0 µM,2.63%
same,relative solubility at 20 uM,,1
same,relative solubility at 100 uM,,1
O=C(NCCc1cccc2ccccc12)c1cc(=O)[nH]c2ccccc12,inhibition,[1]; 50.0 µM,7.36%
same,inhibition,[2]; 20.0 µM,-40.9%
same,inhibition,[2]; 50.0 µM,4.42%
same,relative solubility at 20 uM,,0.87
same,relative solubility at 100 uM,,0.73
O=C(NCc1noc2ccccc12)c1ccccc1OCC1CC1,inhibition,[1]; 20.0 µM,0%
same,inhibition,[1]; 50.0 µM,0%
same,inhibition,[2]; 20.0 µM,5.31%
same,inhibition,[2]; 50.0 µM,11.7%
same,relative solubility at 20 uM,,1
same,relative solubility at 100 uM,,0.64
CC(=O)N1CCN(S(=O)(=O)c2ccsc2)CC1,inhibition,[1]; 20.0 µM,0%
same,inhibition,[1]; 50.0 µM,3.62%
same,inhibition,[2]; 50.0 µM,-20.6%
same,relative solubility at 20 uM,,0.99
same,relative solubility at 100 uM,,1
C=CC(=O)N(c1ccc(SC)cc1)C(C(=O)Nc1ccc(OC)cc1C)c1cccnc1 (configuration not stated),inhibition,[1]; 20.0 µM,0%
same,inhibition,[2]; 20.0 µM,8.27%
same,inhibition,[2]; 50.0 µM,22.2%
same,relative solubility at 20 uM,,0.95
same,relative solubility at 100 uM,,0.84
C=CC(=O)N(c1ccc2ncsc2c1)C(C(=O)Nc1c(C)cccc1CC)c1cccnc1 (configuration not stated),inhibition,[1]; 20.0 µM,0%
same,inhibition,[2]; 20.0 µM,7.67%
same,inhibition,[2]; 50.0 µM,10.7%
same,relative solubility at 20 uM,,0.97
same,relative solubility at 100 uM,,0.97
O=C(CCl)N1CCN(S(=O)(=O)c2c(F)cccc2F)CC1,IC50,[1],2.62 µM
same,inhibition,[1]; 20.0 µM,98.6%
same,inhibition,[1]; 50.0 µM,99.2%
same,inhibition,[2]; 20.0 µM,98.7%
same,inhibition,[2]; 50.0 µM,104%
same,relative solubility at 20 uM,,0.96
same,relative solubility at 100 uM,,0.88
C=CC(=O)N(c1ccc2ncsc2c1)C(C(=O)Nc1ccc(OC)cc1C)c1cccnc1 (configuration not stated),inhibition,[1]; 20.0 µM,0%
same,inhibition,[2]; 20.0 µM,3.21%
same,inhibition,[2]; 50.0 µM,11.3%
same,relative solubility at 20 uM,,0.94
same,relative solubility at 100 uM,,0.92
C=CC(=O)N(C1CCC2(CCCC2)CC1)C(C(=O)NC(C)(C)C)c1cccnc1 (configuration not stated),inhibition,[1]; 20.0 µM,0%
same,inhibition,[2]; 20.0 µM,-5.6%
same,inhibition,[2]; 50.0 µM,6.94%
same,relative solubility at 20 uM,,1
same,relative solubility at 100 uM,,0.97
O=C(CC(=O)N1CCOCC1)NC1CCCCC1,inhibition,[1]; 20.0 µM,0%
same,inhibition,[1]; 50.0 µM,0%
same,inhibition,[2]; 20.0 µM,19.8%
same,inhibition,[2]; 50.0 µM,6.01%
same,relative solubility at 20 uM,,0.99
same,relative solubility at 100 uM,,1
